The values below are quoted from earlier work in patent publication US20230218508A1, “BIODEGRADABLE COMPOSITIONS AND IMPLANTS” (RE-VANA THERAPEUTICS LTD, priority 2020, published 2023).

B1: Ranibizumab (antibody, chains of the INN, looked up, V domains shown)
VH: EVQLVESGGGLVQPGGSLRLSCAASGYDFTHYGMNWVRQAPGKGLEWVGWINTYTGEPTYAADFKRRFTFSLDTSKSTAYLQMNSLRAEDTAVYYCAKYPYYYGTSHWYFDVWGQGTLVTVSS
VL: DIQLTQSPSSLSASVGDRVTITCSASQDISNYLNWYQQKPGKAPKVLIYFTSSLHSGVPSRFSGSGSGTDFTLTISSLQPEDFATYYCQQYSTVPWTFGQGTKVEIK
modifications: Fab
notes: Marketed antibody therapeutic (LUCENTIS®) with molecular weight close to Ovalbumin

For the data set the following is noted: target daily release level; for ranibizumab and BEZ about five times the literature IC50.
For the molecule `CC(C)OC(=O)CCC/C=C\C[C@@H]1[C@@H](CC[C@@H](O)CCc2ccccc2)[C@H](O)C[C@@H]1O` [LP, Latanoprost], the minimum therapeutic level was 0.105 µg/day.

As to Bevacizumab [BEZ], the minimum therapeutic level was 0.5 µg/day.

In the case of B1, the minimum therapeutic level is 0.5 µg/day.
